# Measurements published in US10039781B2, “Pulse inhalation of nitric oxide for treating respiratory diseases” (Advanced Inhalation Therapies (AIT) Ltd., priority 2015, dated 2018).
# Read-outs that look alike come from different tables or passages of the source.
# How the values were obtained:
# [1] = rats, cited from earlier work
# [2] = tested on: Mycobacterium smegmatis; conditions: 200 ppm gNO until substantially eradicated; cited from earlier work
# [3] = tested on: Acinetobader sp.; conditions: 200 ppm gNO until substantially eradicated; cited from earlier work
# [4] = tested on: Serracia sp.; conditions: 200 ppm gNO until substantially eradicated; cited from earlier work
# [5] = tested on: five planktonic species of methicillin resistant S. aureous (MRSA); conditions: exposure to 1,600 ppm hours of gNO; cited from earlier work
# [6] = tested on: Group B Streptococci; conditions: 200 ppm gNO until substantially eradicated; cited from earlier work
# [7] = tested on: Pseudomonas aeruginosa pneumonia; conditions: 160 ppm gNO, intermittent 30 minute exposures, rat; cited from earlier work
# [8] = Prospective phase I open label safety study of inhaled 160 ppm gNO in healthy adults; assay type: in vivo, human; conditions: 160 ppm gNO for 30 minutes, five times a day
# [9] = tested on: MRSA biofilm; conditions: 200 ppm gNO for eight hours (1,600 ppm hours); cited from earlier work
# [10] = tested on: P. aeruginosa (ATCC); conditions: 200 ppm gNO until substantially eradicated; cited from earlier work
# [11] = tested on: Klebsiella sp. #3; conditions: 200 ppm gNO until substantially eradicated; cited from earlier work
# [12] = tested on: Klebsiella sp. #1; conditions: 200 ppm gNO until substantially eradicated; cited from earlier work
# [13] = tested on: bovine respiratory disease; conditions: intermittent 30 minute exposures of gNO, cattle; cited from earlier work
# [14] = tested on: E. coli; conditions: 200 ppm gNO until substantially eradicated; cited from earlier work
# [15] = cited from earlier work
# [16] = tested on: chronic, non-healing wound; conditions: topical 200 ppm gNO, cited from earlier work
# [17] = tested on: microorganisms; experiment: In vitro exposure to 200 ppm gNO, average over all microorganisms of Table 1; assay type: cell-based; conditions: average of the 15 microorganisms
# Description: In vitro studies of the antimicrobial and antiviral effect of gNO have shown that the viability and vitality of viruses, bacteria and fungi decreases to a point of substantial eradication after the pathogen has been exposed to a certain amount of nitric oxide over a certain period of time. This amount, which can be referred to as the effective amount, can be estimated in terms of the concentration of NO in the gas mixture contacted with the pathogen, times the duration of the exposure. For example, the effective amount can be estimated in units of ppm-time-hour, or ppm-hour. Table 1 presents experimental data gathered for microorganisms exposed to 200 ppm gNO until the microorganisms are substantially eradicated*.
# [18] = tested on: Klebsiella sp.#2; conditions: 200 ppm gNO until substantially eradicated; cited from earlier work
# [19] = tested on: S. aureus (Clinical); conditions: 200 ppm gNO until substantially eradicated; cited from earlier work
# [20] = tested on: MRSA; conditions: 200 ppm gNO until substantially eradicated; cited from earlier work
# [21] = rats, gNO concentrations below 200 ppm, 6 hours/day for 28 days; cited from earlier work
# [22] = tested on: S. aureus (ATCC); conditions: 200 ppm gNO until substantially eradicated; cited from earlier work
# [23] = tested on: Enterobacter sp.; conditions: 200 ppm gNO until substantially eradicated; cited from earlier work
# [24] = tested on: Candida albicans; conditions: 200 ppm gNO until substantially eradicated; cited from earlier work
# [25] = healthy humans, cited from earlier work
# [26] = tested on: S. maltophilia; conditions: 200 ppm gNO until substantially eradicated; cited from earlier work
# [27] = 400 ppm gNO, first day of exposure
# [28] = 500 ppm gNO, first day of exposure
# [29] = five consecutive days, healthy adults
structure (smiles),measurement,setting,value
"[N]=O [gNO, nitric oxide]",mortality,"[1]; 300 ppm gNO, groups of 10 rats",Six of the animals treated with 300 ppm gNO died during the first 1-2 days
same,MetHb levels,[1]; [27],72.5 percents
same,mortality,[1]; [27],all of the animals died
same,MetHb levels,[1]; [28],67 percents
same,mortality,[1]; [28],all of the animals died
same,Effective amount in ppm-hour,[2],2000 ppm-hour
same,Effective amount in ppm-hour,[3],1200 ppm-hour
same,Effective amount in ppm-hour,[4],1200 ppm-hour
same,population of MRSA planktonic strains,[5],A reduction in the population of all five MRSA planktonic strains was observed
same,Effective amount in ppm-hour,[6],400 ppm-hour
same,pulmonary bioburden and leukocyte infiltration,[7],effective to reduce the pulmonary bioburden and leukocyte infiltration
same,Forced expiratory volume in 1 sec (FEV1) percentage and other lung function parameters,[8]; [29],improved
same,adverse events,[8]; [29],neither significant adverse events nor adverse events attributable to gNO inhalation occurred
same,methemoglobin levels,[8]; [29],0.9%
same,tolerability,[8]; [29],all individuals tolerated the gNO treatment courses well
same,"serum nitrites/nitrates, prothrombin, pro-inflammatory cytokine and chemokine levels",[8]; baseline versus day 5,did not differ between baseline and day 5
same,MRSA in biofilm,[9],shown to reduce MRSA
same,Effective amount in ppm-hour,[10],600 ppm-hour
same,Effective amount in ppm-hour,[11],1200 ppm-hour
same,Effective amount in ppm-hour,[12],1200 ppm-hour
same,clinical symptoms of bovine respiratory disease,[13],shown to decrease the clinical symptoms
same,Effective amount in ppm-hour,[14],1000 ppm-hour
same,half-life in the body,[15]; in vivo,less than 6 seconds
same,radius of action from its site of origin,[15]; in vivo,approximately 200 microns
same,"nitrate excreted in the urine, share of the nitric oxide dose inhaled",[15]; predominant metabolite nitrate,more than 70%
same,wound size reduction,[16]; at one week,42%
same,presence of biofilm,[16]; within the first three days of treatment,no longer visibly present
same,"Effective amount in ppm-hour, Average",[17],1013.33 ppm-hour
same,Effective amount in ppm-hour,[18],1000 ppm-hour
same,Effective amount in ppm-hour,[19],800 ppm-hour
same,Effective amount in ppm-hour,[20],1000 ppm-hour
same,mortality,[21],No deaths occurred
same,Effective amount in ppm-hour,[22],800 ppm-hour
same,Effective amount in ppm-hour,[23],1200 ppm-hour
same,Effective amount in ppm-hour,[24],800 ppm-hour
same,levels of MetHb,[25]; inhalation of gNO at 128 ppm for 3 hours,> 5%
same,levels of MetHb,[25]; inhalation of gNO at 512 ppm for 55 minutes,> 5%
same,Effective amount in ppm-hour,[26],800 ppm-hour
